Patent publication US20100298141A1, “SUBSTITUTED PYRIDINE N-OXIDE HERBICIDES” (E. I. DU PONT DE NEMOURS AND COMPANY, priority 2007, published 2010)

Tests used:
wheat = experiment: Test C pre-/postemergence test; format: in vivo, Triticum aestivum; details: for Plant response rating, Wheat: 31 g ai/ha, scale 0 to 100 (0 no effect, 100 complete control)
In short: (§1)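 Seeds were planted and treated preemergence with test chemical in a non-phytotoxic solvent mixture containing surfactant. Postemergence applications of the same formulation went onto plants 2 to 18 cm tall (1- to 4-leaf stage). A dash marks no test result.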

barnyardgrass = experiment: Test A pre-/postemergence greenhouse test; format: in vivo, Echinochloa crus-galli; details: for Plant response rating, Barnyardgrass: 0 to 100 scale where 0 is no effect and 100 is complete control; for Barnyardgrass plant response rating: 0 to 100 scale
In short: (§2)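 Planting was into mixed loam soil and sand; preemergence treatment followed as a directed soil spray. Concurrently, emerged plants (one- to two-leaf, 2–10 cm) received postemergence applications of identically formulated compound (non-phytotoxic solvent, surfactant). After approximately ten days under greenhouse conditions, injury was judged by eye against untreated plants.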

cocklebur = experiment: Test C pre-/postemergence test; format: in vivo, Xanthium strumarium; details: for Plant response rating, Cocklebur: 31 g ai/ha, scale 0 to 100 (0 no effect, 100 complete control)
In short: as §1

corn = experiment: Test C pre-/postemergence test; format: in vivo, Zea mays; details: for Plant response rating, Corn: 31 g ai/ha, scale 0 to 100 (0 no effect, 100 complete control)
In short: as §1

kochia = experiment: Test C pre-/postemergence test; format: in vivo, Kochia scoparia; details: for Plant response rating, Kochia: 31 g ai/ha, scale 0 to 100 (0 no effect, 100 complete control)
In short: as §1

woolly cupgrass = experiment: Test C pre-/postemergence test; format: in vivo, Eriochloa villosa; details: for Plant response rating, Cupgrass, Woolly: 31 g ai/ha, scale 0 to 100 (0 no effect, 100 complete control)
In short: as §1

[1] = test system: common (oilseed) sunflower; experiment: Test C pre-/postemergence test; format: in vivo, Helianthus annuus; details: for Plant response rating, Sunflower: 31 g ai/ha, scale 0 to 100 (0 no effect, 100 complete control)
In short: as §1

umbrella sedge = experiment: Test C flooded paddy test; format: in vivo, Cyperus difformis; details: Flood
In short: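 In-water treatment: compound dosed into 3 cm flood over soil, water level unchanged throughout. Controls run alongside; visual assessment at day 13–15.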

soybean = experiment: Test C pre-/postemergence test; format: in vivo, Glycine max; details: for Plant response rating, Soybean: 31 g ai/ha, scale 0 to 100 (0 no effect, 100 complete control)
In short: as §1

morningglory [2] = experiment: Test A pre-/postemergence greenhouse test; format: in vivo, Ipomoea spp.; details: for Plant response rating, Morningglory: 0 to 100 scale where 0 is no effect and 100 is complete control; for Morningglory plant response rating: 0 to 100 scale
In short: as §2

pigweed = experiment: Test C pre-/postemergence test; format: in vivo, Amaranthus retroflexus; details: for Plant response rating, Pigweed: 31 g ai/ha, scale 0 to 100 (0 no effect, 100 complete control)
In short: as §1

Italian ryegrass = experiment: Test C pre-/postemergence test; format: in vivo, Lolium multiflorum; details: for Plant response rating, Ryegrass, Italian: 31 g ai/ha, scale 0 to 100 (0 no effect, 100 complete control)
In short: as §1

yellow nutsedge = experiment: Test C pre-/postemergence test; format: in vivo, Cyperus esculentus; details: for Plant response rating, Nutsedge, Yellow: 31 g ai/ha, scale 0 to 100 (0 no effect, 100 complete control)
In short: as §1

green foxtail = experiment: Test C pre-/postemergence test; format: in vivo, Setaria viridis; details: for Plant response rating, Foxtail, Green: 31 g ai/ha, scale 0 to 100 (0 no effect, 100 complete control)
In short: as §1

crabgrass = experiment: Test C pre-/postemergence test; format: in vivo, Digitaria sanguinalis; details: for Plant response rating, Crabgrass, Large: 31 g ai/ha, scale 0 to 100 (0 no effect, 100 complete control)
In short: as §1

blackgrass = experiment: Test C pre-/postemergence test; format: in vivo, Alopecurus myosuroides; details: for Plant response rating, Blackgrass: 31 g ai/ha, scale 0 to 100 (0 no effect, 100 complete control)
In short: as §1

morningglory [3] = experiment: Test C pre-/postemergence test; format: in vivo, Ipomoea coccinea; details: for Plant response rating, Morningglory: 31 g ai/ha, scale 0 to 100 (0 no effect, 100 complete control)
In short: as §1

[4] = 62 g ai/ha, Preemergence, scale 0 to 100
[5] = 125 g ai/ha, preemergence, scale 0 (no effect) to 100 (complete control)
[6] = preemergence, 250 g ai/ha, scale 0 (no effect) to 100 (complete control)
[7] = Postemergence, 500 g ai/ha, 0 is no effect, 100 is complete control
[8] = Preemergence, 125 g ai/ha, 0 no effect, 100 complete control
[9] = 62 g ai/ha, scale 0 to 100 (0 no effect, 100 complete control)
[10] = 250 g ai/ha, scale 0 to 100, 0 no effect, 100 complete control, 13 to 15 days

Cn1nc(C(F)(F)F)c(CS(=O)(=O)c2ccc(Cl)c[n+]2[O-])c1OCC(F)(F)F [Compound 73]
70: Plant response rating, Barnyardgrass (barnyardgrass; Postemergence, 125 g ai/ha) | Soybean plant response rating (soybean; [6]) | Foxtail, Green plant response rating (green foxtail; [4]) | Plant response rating, Foxtail, Green (green foxtail; Preemergence)
20: Wheat plant response rating (wheat; [6]) | Morningglory plant response rating (morningglory [2]; [7]) | Morningglory plant response rating (morningglory [2]; [8])
30: Corn plant response rating (corn; [6])
98: Ryegrass, Italian plant response rating (Italian ryegrass; [6]) | Blackgrass plant response rating (blackgrass; [4]) | Plant response rating, Blackgrass (blackgrass; Preemergence)
10: Wheat plant response rating (wheat; [5]) | Ryegrass, Italian plant response rating (Italian ryegrass; [4])
80: Barnyardgrass plant response rating (barnyardgrass; [7]) | Cupgrass, Woolly plant response rating (woolly cupgrass; [4]) | Nutsedge, Yellow plant response rating (yellow nutsedge; [6])
85: Cupgrass, Woolly plant response rating (woolly cupgrass; [5]) | Cupgrass, Woolly plant response rating (woolly cupgrass; [6]) | Crabgrass, Large plant response rating (crabgrass; [4]) | Crabgrass, Large plant response rating (crabgrass; [5]) | Plant response rating, Crabgrass, Large (crabgrass; Preemergence)
95: Crabgrass, Large plant response rating (crabgrass; [6])
100: Kochia plant response rating (kochia; [4]) | Kochia plant response rating (kochia; [5]) | Kochia plant response rating (kochia; [6]) | Pigweed plant response rating (pigweed; [4]) | Pigweed plant response rating (pigweed; [5]) | Pigweed plant response rating (pigweed; [6]) | Foxtail, Green plant response rating (green foxtail; [5]) | Blackgrass plant response rating (blackgrass; [5]) | Blackgrass plant response rating (blackgrass; [6])
0: Wheat plant response rating (wheat; [4]) | Plant response rating, Wheat (wheat; Preemergence) | Cocklebur plant response rating (cocklebur; [4]) | Cocklebur plant response rating (cocklebur; [5]) | Plant response rating, Cocklebur (cocklebur; Preemergence) | Cocklebur plant response rating (cocklebur; [6]) | Corn plant response rating (corn; [4]) | Corn plant response rating (corn; [5]) | Plant response rating, Corn (corn; Preemergence) | Sunflower plant response rating [1, 4] | Plant response rating, Sunflower ([1]; Preemergence) | Plant response rating, Sedge, Umbrella (umbrella sedge; [9]) | Soybean plant response rating (soybean; [4]) | Plant response rating, Soybean (soybean; Preemergence) | Plant response rating, Morningglory (morningglory [2]; Postemergence, 125 g ai/ha) | Plant response rating, Ryegrass, Italian (Italian ryegrass; Preemergence) | Nutsedge, Yellow plant response rating (yellow nutsedge; [4]) | Plant response rating, Nutsedge, Yellow (yellow nutsedge; Preemergence) | Morningglory plant response rating (morningglory [3]; [4]) | Morningglory plant response rating (morningglory [3]; [5]) | Plant response rating, Morningglory (morningglory [3]; Preemergence) | Morningglory plant response rating (morningglory [3]; [6])
90: Barnyardgrass plant response rating (barnyardgrass; [8]) | Plant response rating, Barnyardgrass (barnyardgrass; Preemergence, 500 g ai/ha) | Plant response rating, Pigweed (pigweed; Preemergence)
60: Plant response rating, Kochia (kochia; Preemergence) | Plant response rating, Cupgrass, Woolly (woolly cupgrass; Preemergence) | Ryegrass, Italian plant response rating (Italian ryegrass; [5])
65: Plant response rating, Sedge, Umbrella (umbrella sedge; [10])
35: Sunflower plant response rating [1, 5]
40: Sunflower plant response rating [1, 6] | Plant response rating, Morningglory (morningglory [2]; Preemergence, 500 g ai/ha) | Nutsedge, Yellow plant response rating (yellow nutsedge; [5])

Cn1nc(C(F)(F)C(F)(F)F)c(C[S+]([O-])c2ccc(Cl)c[n+]2[O-])c1OCC(F)(F)F (centres unmarked) [Compound 92]
35: Plant response rating, Wheat (wheat; Preemergence) | Sunflower plant response rating [1, 4]
70: Plant response rating, Barnyardgrass (barnyardgrass; Postemergence, 125 g ai/ha) | Sunflower plant response rating [1, 5] | Plant response rating, Morningglory (morningglory [2]; Postemergence, 125 g ai/ha)
98: Corn plant response rating (corn; [5]) | Corn plant response rating (corn; [6]) | Cupgrass, Woolly plant response rating (woolly cupgrass; [5]) | Foxtail, Green plant response rating (green foxtail; [5]) | Crabgrass, Large plant response rating (crabgrass; [4])
75: Plant response rating, Corn (corn; Preemergence)
20: Plant response rating, Sedge, Umbrella (umbrella sedge; [9])
80: Soybean plant response rating (soybean; [6]) | Plant response rating, Pigweed (pigweed; Preemergence) | Ryegrass, Italian plant response rating (Italian ryegrass; [4]) | Morningglory plant response rating (morningglory [3]; [4])
65: Wheat plant response rating (wheat; [4]) | Plant response rating, Cupgrass, Woolly (woolly cupgrass; Preemergence)
95: Wheat plant response rating (wheat; [6]) | Corn plant response rating (corn; [4]) | Foxtail, Green plant response rating (green foxtail; [4]) | Plant response rating, Crabgrass, Large (crabgrass; Preemergence)
60: Barnyardgrass plant response rating (barnyardgrass; [8]) | Plant response rating, Ryegrass, Italian (Italian ryegrass; Preemergence)
0: Cocklebur plant response rating (cocklebur; [4]) | Cocklebur plant response rating (cocklebur; [5]) | Plant response rating, Cocklebur (cocklebur; Preemergence) | Plant response rating, Sunflower ([1]; Preemergence) | Plant response rating, Soybean (soybean; Preemergence) | Plant response rating, Morningglory (morningglory [3]; Preemergence)
85: Sunflower plant response rating [1, 6] | Plant response rating, Blackgrass (blackgrass; Preemergence) | Morningglory plant response rating (morningglory [3]; [5])
100: Kochia plant response rating (kochia; [4]) | Kochia plant response rating (kochia; [5]) | Kochia plant response rating (kochia; [6]) | Cupgrass, Woolly plant response rating (woolly cupgrass; [6]) | Plant response rating, Sedge, Umbrella (umbrella sedge; [10]) | Morningglory plant response rating (morningglory [2]; [7]) | Morningglory plant response rating (morningglory [2]; [8]) | Plant response rating, Morningglory (morningglory [2]; Preemergence, 500 g ai/ha) | Pigweed plant response rating (pigweed; [4]) | Pigweed plant response rating (pigweed; [5]) | Pigweed plant response rating (pigweed; [6]) | Ryegrass, Italian plant response rating (Italian ryegrass; [5]) | Ryegrass, Italian plant response rating (Italian ryegrass; [6]) | Nutsedge, Yellow plant response rating (yellow nutsedge; [6]) | Foxtail, Green plant response rating (green foxtail; [6]) | Crabgrass, Large plant response rating (crabgrass; [5]) | Crabgrass, Large plant response rating (crabgrass; [6]) | Blackgrass plant response rating (blackgrass; [4]) | Blackgrass plant response rating (blackgrass; [5]) | Blackgrass plant response rating (blackgrass; [6]) | Morningglory plant response rating (morningglory [3]; [6])
90: Wheat plant response rating (wheat; [5]) | Barnyardgrass plant response rating (barnyardgrass; [7]) | Plant response rating, Barnyardgrass (barnyardgrass; Preemergence, 500 g ai/ha) | Cupgrass, Woolly plant response rating (woolly cupgrass; [4]) | Nutsedge, Yellow plant response rating (yellow nutsedge; [4]) | Nutsedge, Yellow plant response rating (yellow nutsedge; [5]) | Plant response rating, Nutsedge, Yellow (yellow nutsedge; Preemergence) | Plant response rating, Foxtail, Green (green foxtail; Preemergence)
55: Cocklebur plant response rating (cocklebur; [6])
50: Plant response rating, Kochia (kochia; Preemergence)
